Assay results reported in PMC3933693, “Novel Inhibitors of Mitochondrial sn-Glycerol 3-phosphate Dehydrogenase” (PLoS ONE, 2014).

Legend:
[1] = target: T1, mGPDH (Rattus norvegicus, UniProt P35571); assay: Superoxide/H2O2 production by mGPDH in isolated skeletal muscle mitochondria (Amplex UltraRed); type: biochemical; details: for mGPDH (% change from DMSO): primary screen, ∼2.5 µM, average of duplicates, 16.7 mM glycerol phosphate, no added calcium
T1 construct: Activity of mGPDH in frozen-thawed skeletal muscle mitochondria was measured; from tissue; host or cells: skeletal muscle mitochondria
T1 sequence (P35571 43-727): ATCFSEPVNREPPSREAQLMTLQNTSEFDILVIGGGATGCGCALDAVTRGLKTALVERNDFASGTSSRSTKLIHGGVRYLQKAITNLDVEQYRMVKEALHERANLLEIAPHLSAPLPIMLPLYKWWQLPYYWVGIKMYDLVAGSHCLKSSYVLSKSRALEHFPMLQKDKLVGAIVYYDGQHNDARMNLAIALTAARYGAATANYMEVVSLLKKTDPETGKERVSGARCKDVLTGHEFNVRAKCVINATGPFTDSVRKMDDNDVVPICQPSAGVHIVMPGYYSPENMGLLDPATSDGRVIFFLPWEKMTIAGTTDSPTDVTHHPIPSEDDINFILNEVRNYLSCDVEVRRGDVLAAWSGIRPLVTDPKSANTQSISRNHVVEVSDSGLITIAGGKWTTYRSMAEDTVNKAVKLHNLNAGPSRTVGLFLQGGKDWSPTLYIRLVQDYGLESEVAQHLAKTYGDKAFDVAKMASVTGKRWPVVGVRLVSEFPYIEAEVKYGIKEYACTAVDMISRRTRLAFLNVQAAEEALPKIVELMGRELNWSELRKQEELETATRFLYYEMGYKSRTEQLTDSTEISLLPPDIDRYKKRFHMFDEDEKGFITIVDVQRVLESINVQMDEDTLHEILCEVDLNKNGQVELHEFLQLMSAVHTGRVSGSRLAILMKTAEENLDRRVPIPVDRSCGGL

[2] = tested on: flavin mononucleotide site of complex I (site IF) plus matrix NAD-linked dehydrogenases (site IF/DH); assay: Site-specific H2O2 production from site IF/DH in skeletal muscle mitochondria; type: biochemical, rat; details: primary screen, ∼2.5 µM, average of duplicates
Experimental: (§1) Superoxide was measured as H2O2 after dismutation by endogenous or exogenous superoxide dismutase. Rates of total superoxide/H2O2 production were measured fluorimetrically using Amplex UltraRed in the presence of exogenous superoxide dismutase and horseradish peroxidase in a Varian Cary Eclipse fluorimeter as previously described. Rates of production from specific sites were determined as previously described using the following eight conditions: flavin mononucleotide site of complex I (site IF) plus matrix NAD-linked dehydrogenases (collectively "site IF/DH") with 5 mM glutamate, 5 mM malate, and 4 µM rotenone; ubiquinone-binding site of complex I (site IQ) with either 0.5 or 5 mM succinate; flavin site of complex II (site IIF) with either 15 µM palmitoylcarnitine, 2.5 µM antimycin A, and 2 µM myxothiazol or 0.5 mM succinate, 4 µM rotenone, 2.5 µM antimycin A, and 2 µM myxothiazol, [31]; mGPDH with 1.7 mM glycerol phosphate, 4 µM rotenone, 2.5 µM antimycin A, 2 µM myxothiazol, 1 mM malonate, and 250 nM free calcium; outer ubiquinone-binding site of complex III (site IIIQo) with either 0.5 or 5 mM succinate, 4 µM rotenone and 2.5 µM antimycin A [32]. Candidate small-molecule inhibitors were added prior to the start of measurements and H2O2 calibration curves were performed in the presence of tested compounds.
(§2) 3,200 compounds were tested initially at 2.5 µM (0.025% DMSO final) in duplicate on different plates against a panel of five distinct assays of site-specific superoxide/H2O2 production as described in the previous section with minor changes. […] Endpoint fluorescence was measured on a Perkin Elmer Victor V3 fluorescent plate reader. The fluorescence intensity of each well was normalized as % change from the average of eight DMSO controls on the same plate. Duplicate wells of each of four modulators of mitochondrial metabolism known to inhibit specific sites of superoxide/H2O2 production were included on each plate as positive controls and the resulting fluorescence levels set as −100% change from DMSO controls. Known inhibitors included 20 mM aspartate (for site IF/DH), 1 µM FCCP (for site IQ), 10 mM malonate (for site IIF), and 2 µM myxothiazol (for site IIIQo). The background fluorescence of the FCCP wells in the site IQ assay was used to normalize mGPDH plates run in parallel. To minimize position-dependent effects across each assay plate, Tukey’s two-way median polish was applied to fluorescence values after initial normalization, [36]. Tukey’s polish is an iterative subtraction of the median row and column values from each well’s given row or column. The procedure is repeated until sequential medians for each row and column are zero and positional gradients in fluorescence are eliminated.

[3] = tested on: ubiquinone-binding site of complex I (site IQ); assay: Site-specific H2O2 production from site IQ in skeletal muscle mitochondria; type: biochemical, rat; details: primary screen, ∼2.5 µM, average of duplicates; 5 mM succinate;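 note: H2O2 from superoxide detected by Amplex UltraRed fluorescence with added superoxide dismutase and horseradish peroxidase, endpoint read 30–40 min after substrate addition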
[4] = target: T2, flavin site of complex II (site IIF) (Rattus norvegicus, UniProt Q920L2); assay: Site-specific H2O2 production from site IIF in skeletal muscle mitochondria; type: biochemical; details: primary screen, ∼2.5 µM, average of duplicates; palmitoylcarnitine
T2 construct: from tissue; host or cells: skeletal muscle mitochondria
Experimental: as §1, §2

[5] = target: T3, outer ubiquinone-binding site of complex III (site IIIQo) (Rattus norvegicus, UniProt P00159+P20788); assay: Site-specific H2O2 production from site IIIQo in skeletal muscle mitochondria; type: biochemical; details: primary screen, ∼2.5 µM, average of duplicates; 5 mM succinate
T3 construct: from tissue; host or cells: skeletal muscle mitochondria
Experimental: as §1, §2

[6] = tested on: skeletal muscle mitochondria; assay: Mitochondrial membrane potential (ΔΨm, TMRM) powered by glutamate plus malate; type: biochemical, rat; details: primary screen, ∼2.5 µM, average of duplicates; glutamate and malate

T2 sequence (Q920L2 35-656): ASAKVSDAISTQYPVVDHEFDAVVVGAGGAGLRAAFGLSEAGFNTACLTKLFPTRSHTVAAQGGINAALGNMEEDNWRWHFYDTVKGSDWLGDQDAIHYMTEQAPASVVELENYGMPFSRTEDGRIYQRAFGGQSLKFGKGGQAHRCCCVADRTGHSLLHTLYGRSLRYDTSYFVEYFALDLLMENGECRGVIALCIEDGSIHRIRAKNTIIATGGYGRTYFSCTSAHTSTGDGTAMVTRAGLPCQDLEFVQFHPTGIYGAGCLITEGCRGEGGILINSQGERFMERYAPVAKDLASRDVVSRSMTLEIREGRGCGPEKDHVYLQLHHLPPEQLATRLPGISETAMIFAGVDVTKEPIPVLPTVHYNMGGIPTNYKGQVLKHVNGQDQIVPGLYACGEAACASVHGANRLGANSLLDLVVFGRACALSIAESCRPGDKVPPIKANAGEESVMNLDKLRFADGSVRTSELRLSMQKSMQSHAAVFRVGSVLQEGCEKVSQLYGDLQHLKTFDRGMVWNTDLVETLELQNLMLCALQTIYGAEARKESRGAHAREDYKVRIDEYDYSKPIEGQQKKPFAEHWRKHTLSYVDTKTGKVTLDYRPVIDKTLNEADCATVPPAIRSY
T2 sequence (P21913 31-282 partner): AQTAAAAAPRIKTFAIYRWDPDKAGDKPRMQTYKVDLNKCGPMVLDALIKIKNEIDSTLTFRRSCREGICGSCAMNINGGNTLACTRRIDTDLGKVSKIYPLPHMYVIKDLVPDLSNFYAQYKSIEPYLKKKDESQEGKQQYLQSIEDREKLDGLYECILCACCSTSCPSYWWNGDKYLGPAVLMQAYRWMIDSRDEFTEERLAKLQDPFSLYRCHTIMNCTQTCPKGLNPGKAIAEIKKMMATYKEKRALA
T2 sequence (Q641Z9 30-169 partner limits assumed): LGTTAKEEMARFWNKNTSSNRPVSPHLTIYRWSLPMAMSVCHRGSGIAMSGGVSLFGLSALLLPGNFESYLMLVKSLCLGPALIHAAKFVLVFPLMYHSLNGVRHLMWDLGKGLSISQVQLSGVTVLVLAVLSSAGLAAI
T2 sequence (Q6PCT8 57-159 partner): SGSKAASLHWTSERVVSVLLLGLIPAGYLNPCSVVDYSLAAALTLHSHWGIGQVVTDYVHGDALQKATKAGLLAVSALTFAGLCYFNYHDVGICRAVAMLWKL

Row | Compound | mGPDH (% change from DMSO) [1] [%] | IIF (% change from DMSO) [4] [%] | IIIQo (% change from DMSO) [5] [%] | effect on the rate of H2O2 production from mGPDH ([1]; compared with glyceraldehyde 3-phosphate, Fig. 2A) | IF/DH (% change from DMSO) [2] [%] | IQ (% change from DMSO) [3] [%] | ΔΨm (% change from DMSO) [6] [%]
1 | Nc1ccccc1S(=O)(=O)Nc1cccc2cccnc12 [compound 5175136] | -16.1 | -14.5 | 9.1 | – | -42.5 | -18.9 | 0.113
2 | CN(C)c1nc2ccc(O)cc2s1 [compound 5195231] | -68.8 | -110.1 | -41.2 | – | -166.4 | -66.7 | 0.4
3 | O=C1N=C(c2ccccc2)C(c2ccccc2)N1 (stereo not shown) [compound 5162292] | -13.1 | -24.8 | -23.8 | – | -7.5 | -4.2 | -2.7
4 | COc1ccc(NCCNc2ccc(OC)cc2)cc1 [compound 5174308] | -37.5 | -50.8 | -30.1 | – | -73.0 | -49.0 | 0.352
5 | O=[N+]([O-])c1ccc2[nH]c(-c3ccccc3)cc2c1 [compound 5107950] | -19.8 | -18.1 | 46.2 | – | -58.4 | -70.5 | -14.4
6 | CC(C)CSC(CC(=O)O)C(=O)O (stereo not shown) [compound 5152843] | -10.7 | -7.8 | -15.7 | – | -19.0 | -6.2 | -0.119
7 | NC(=O)Cc1c[nH]c2cccc(O)c12 [compound 5106694] | -32.1 | -58.5 | -48.1 | – | -39.7 | -49.2 | 0.127
8 | O=C1c2ccccc2C(=O)N1CCc1c[nH]c2ccc(O)cc12 [compound 5106791] | -16.2 | -42.5 | -35.4 | – | -33.6 | -44.7 | 0.466
9 | Cc1ccc(NC(=O)c2ccc(C(C)(C)C)cc2)cc1 [compound 5210384] | -11.4 | -0.156 | 11.8 | – | 6.3 | 1.4 | -1.1
10 | Nc1cc(C(=O)O)c(N)cc1C(=O)O [compound 5180162] | -10.8 | -10.7 | -3.2 | – | -5.6 | -6.3 | -0.24
11 | O=C(CO)COP(=O)(O)O [DHAP, dihydroxyacetone phosphate, reference compound] | – | – | – | less effective | – | – | –

Further lines, with some results ahead:

Row | mGPDH (% change from DMSO) [1] [%] | IIF (% change from DMSO) [4] [%] | IIIQo (% change from DMSO) [5] [%] | effect on the rate of H2O2 production from mGPDH ([1]; compared with glyceraldehyde 3-phosphate, Fig. 2A) | Compound | IF/DH (% change from DMSO) [2] [%] | IQ (% change from DMSO) [3] [%] | ΔΨm (% change from DMSO) [6] [%]
12 | -12.4 | -0.354 | -15.9 | – | Cc1ccc(S(=O)(=O)CCC#N)cc1C [compound 5210670] | -4.6 | 0.4 | -0.074
13 | -26.4 | -28.0 | -8.4 | – | O=C(Nc1ccc(O)cc1)c1ccco1 [compound 5471987] | -52.3 | -9.9 | 0.0125
14 | -22.7 | -32.9 | -20.2 | – | CC1(C)CC(=O)C2=C(C1)Nc1cc(Cl)ccc1S2 [compound 5219661] | -91.8 | -52.0 | -1.8
15 | -14.1 | 1.3 | -0.0236 | – | O=C(O)CSc1cccc(C(=O)Nc2ccc(Br)cc2)c1 [compound 5210767] | -0.5 | -0.0908 | -0.00715
16 | -29.7 | -24.5 | -33.8 | – | COc1ccc(CNc2cccc(N(C)C)c2)cc1 [compound 5452512] | -33.7 | -34.0 | 0.0119
17 | -14.1 | -26.9 | -6.4 | – | CC(=O)c1c(C)n(-c2ccccc2)c2ccc(O)cc12 [compound 5215317] | -34.7 | -13.7 | 0.144
18 | -31.6 | -51.0 | -36.6 | – | CC1=Nc2c([nH]c3ccccc23)-c2cc(C)ccc2N1.Cl [compound 5219818] | -40.2 | -50.1 | -0.5
19 | -29.8 | -44.3 | -8.8 | – | COc1ccc(C(=O)Nc2ccc(S(=O)(=O)Nc3nc(C)cc(C)n3)cc2)c(OC)c1 [compound 5219504] | -30.7 | -19.3 | 1.4
20 | -13.4 | – | -5.7 | – | CCN1CCN(C/C=C/c2ccc(N(C)C)cc2)CC1 [compound 5424907] | -6.5 | -2.9 | 0.00666
21 | -11.3 | – | -15.0 | – | COc1cc(CN2CCOCC2)ccc1O [compound 5423875] | -12.7 | -20.0 | 0.5
22 | -18.0 | – | -19.0 | – | COc1ccc(O)c(CN2CCC(N3CCCCC3)CC2)c1 [compound 5410291] | -15.5 | -18.2 | -0.0836
